pEC50, pIC50, pKi: −log10 of the molar value.
Key:
[1] = biological target: T1, SARS-CoV-2 nsp12 NiRAN domain (Severe acute respiratory syndrome coronavirus 2, UniProt P0DTD1); test: biochemical; conditions: for pIC50 / IC50 for NiRAN-dependent AMPylation of nsp9: n = 4; for pIC50: read-out: IC50 for NiRAN-dependent AMPylation of nsp9
[2] = biological target: nsp12 (Severe acute respiratory syndrome coronavirus 2, UniProt P0DTD1); assay type: binding, SARS-CoV-2
[3] = biological target: T1, SARS-CoV-2 nsp12 NiRAN domain; assay type: biochemical
[4] = biological target: SARS-CoV-2 nsp12 (Severe acute respiratory syndrome coronavirus 2, UniProt P0DTD1); assay type: binding
[5] = biological target: SARS-CoV-1 nsp12 (Severe acute respiratory syndrome coronavirus, UniProt P0C6X7); assay type: binding
[6] = biological target: MERS nsp12 (Middle East respiratory syndrome-related coronavirus, UniProt K9N7C7); assay type: binding, MERS-CoV
[7] = biological target: human SelO (Homo sapiens, UniProt Q9BVL4, U667C); assay type: binding
[8] = biological target: nsp12 RdRp (Severe acute respiratory syndrome coronavirus 2, UniProt P0DTD1); assay type: biochemical, SARS-CoV-2
[9] = biological target: T2, Flag-nsp12 (Severe acute respiratory syndrome coronavirus 2, UniProt P0DTD1); assay type: cell-based, SARS-CoV-2
[10] = test system: SARS-CoV-2-Wu-1-zsGreen; test: microbe, parasite or virus in culture; assay type: cell-based; conditions: for pEC50: Severe acute respiratory syndrome coronavirus 2, read-out: EC50 for viral replication (infectivity)
[11] = biological target: T2, Flag-nsp12; assay type: cell-based, SARS-CoV-2; remark: listed apart in the source
[12] = test system: SARS-CoV-2; conditions: cited from earlier work
[13] = biological target: SARS-CoV-2 main protease; conditions: cited from earlier work
[14] = test system: NiRAN; conditions: cited from earlier work

human SelO, sequence (Q9BVL4 with tags, fused parts or gaps U667C limits assumed): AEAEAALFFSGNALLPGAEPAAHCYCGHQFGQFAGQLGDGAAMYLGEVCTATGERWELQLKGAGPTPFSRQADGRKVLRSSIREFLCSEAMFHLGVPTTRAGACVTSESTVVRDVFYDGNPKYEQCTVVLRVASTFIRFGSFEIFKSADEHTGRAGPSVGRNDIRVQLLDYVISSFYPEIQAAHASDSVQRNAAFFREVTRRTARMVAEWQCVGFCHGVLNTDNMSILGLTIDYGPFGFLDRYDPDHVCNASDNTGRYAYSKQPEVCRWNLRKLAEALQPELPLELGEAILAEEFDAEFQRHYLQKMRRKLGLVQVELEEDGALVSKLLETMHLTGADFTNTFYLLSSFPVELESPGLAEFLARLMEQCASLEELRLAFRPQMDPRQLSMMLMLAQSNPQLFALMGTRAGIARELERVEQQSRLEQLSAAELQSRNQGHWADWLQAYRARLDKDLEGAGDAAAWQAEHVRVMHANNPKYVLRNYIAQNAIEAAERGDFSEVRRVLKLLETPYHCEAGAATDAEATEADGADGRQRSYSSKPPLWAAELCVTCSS
MERS nsp12, sequence (K9N7C7 4378-5310 limits assumed): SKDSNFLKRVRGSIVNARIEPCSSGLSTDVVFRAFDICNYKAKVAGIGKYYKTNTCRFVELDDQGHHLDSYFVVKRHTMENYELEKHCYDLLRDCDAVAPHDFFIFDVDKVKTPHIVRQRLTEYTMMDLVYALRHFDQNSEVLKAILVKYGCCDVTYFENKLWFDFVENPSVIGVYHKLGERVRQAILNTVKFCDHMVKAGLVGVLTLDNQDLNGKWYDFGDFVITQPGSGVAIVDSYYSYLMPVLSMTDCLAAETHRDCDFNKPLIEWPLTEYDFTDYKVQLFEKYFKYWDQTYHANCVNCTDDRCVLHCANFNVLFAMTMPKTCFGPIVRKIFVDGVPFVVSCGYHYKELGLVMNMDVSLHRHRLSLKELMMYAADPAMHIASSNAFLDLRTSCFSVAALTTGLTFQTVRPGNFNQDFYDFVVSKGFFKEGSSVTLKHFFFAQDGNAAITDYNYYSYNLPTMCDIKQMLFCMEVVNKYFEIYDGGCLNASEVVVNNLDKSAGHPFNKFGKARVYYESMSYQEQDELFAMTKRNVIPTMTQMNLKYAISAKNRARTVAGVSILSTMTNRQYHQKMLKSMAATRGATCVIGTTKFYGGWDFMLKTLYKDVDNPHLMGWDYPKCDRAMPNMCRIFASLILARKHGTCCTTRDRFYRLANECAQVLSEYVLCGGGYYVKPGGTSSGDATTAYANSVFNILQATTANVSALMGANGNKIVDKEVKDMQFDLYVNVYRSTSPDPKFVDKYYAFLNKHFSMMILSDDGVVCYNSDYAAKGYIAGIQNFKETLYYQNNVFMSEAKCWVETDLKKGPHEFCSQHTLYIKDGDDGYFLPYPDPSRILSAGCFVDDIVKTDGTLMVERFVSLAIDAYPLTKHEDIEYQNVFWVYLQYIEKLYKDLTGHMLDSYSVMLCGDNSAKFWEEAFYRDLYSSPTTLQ

**Q.** With `O=c1cc(CCl)nc2ccc(Cl)cn12` [NCI-1] as the compound, how does the pIC50 [1] read?
**A.** 5.14

**Q.** What about the “effect on thermal stability of nsp12” value [2] of the same compound?
**A.** increase in the thermal stability of nsp12

**Q.** And the “inhibition of NiRAN-dependent RNAylation of nsp9” value [3]?
**A.** inhibition of NiRAN-dependent RNAylation of nsp9

**Q.** What about the “covalent binding to nsp12 (intact mass shift)” value [4] of the same compound?
**A.** covalent addition

**Q.** With `COC(=O)c1cnn2c(O)cc(CCl)nc12` [NCI-2, methyl 5-(chloromethyl)-7-hydroxypyrazolo[1,5-a]pyrimidine-3-carboxylate] as the compound, how does the pKi [1] read?
**A.** 4.79

**Q.** And the pIC50 [1]?
**A.** 5.36

**Q.** And the kinact ([1]; read-out: rate of inactivation constant kinact)?
**A.** 0.0024 s⁻¹

**Q.** What about the kinact/KI ([1]; read-out: second order rate constant kinact/Ki) of the same compound?
**A.** 147 M⁻¹ s⁻¹

**Q.** And the “effect on thermal stability of nsp12” value [2]?
**A.** increase in the thermal stability of nsp12

**Q.** What about the “inhibition of NiRAN-dependent RNAylation of nsp9” value [3] of the same compound?
**A.** inhibition of NiRAN-dependent RNAylation of nsp9

**Q.** And the “covalent binding to nsp12 (intact mass shift)” value [4]?
**A.** covalent addition

**Q.** What about the “covalent binding to SARS-CoV-1 nsp12” value [5] of the same compound?
**A.** covalently binds

**Q.** What about the “binding to MERS NiRAN (nsp12)” value [6] of the same compound?
**A.** fails to bind

**Q.** What about the “binding to SelO” value [7] of the same compound?
**A.** fails to bind

**Q.** What about the “effect on nsp12 polymerase (RdRp) activity” value [8] of the same compound?
**A.** did not impact nsp12 polymerase activity

**Q.** And the “RNAylation activity of Flag-nsp12 from treated cells” value [9]?
**A.** marked reduction in its ability to RNAylate nsp9

**Q.** What about the “concentration at which inhibition of viral replication was observed” value [10] of the same compound?
**A.** 200 µM

**Q.** What about the pEC50 [10] of the same compound?
**A.** < 3.70

**Q.** With `C#CCOC(=O)c1cnn2c(O)cc(CCl)nc12` [NCI-3, Prop-2-yn-1-yl 5-(chloromethyl)-7-hydroxypyrazolo[1,5-a]pyrimidine-3-carboxylate] as the compound, how does the pIC50 [1] read?
**A.** 4.98

**Q.** What about the “binding to nsp12 in cells (biotinylation after click reaction)” value [11] of the same compound?
**A.** major biotinylated species corresponding to nsp12

**Q.** For `C#CCNc1cc(CCl)nc2c(C(=O)OC)cnn12` [SW395929-1, Methyl 5-(chloromethyl)-7-(prop-2-yn-1-ylamino)pyrazolo[1,5-a]pyrimidine-3-carboxylate], which “IC50 for NiRAN-dependent AMPylation of nsp9” value (“IC50 … of nsp9” for short) [1] is on record?
**A.** No activity up to 500 μM

**Q.** With `O=C(O)c1cnn2c(O)cc(CCl)nc12` [SW396061-1, 5-(Chloromethyl)-7-hydroxypyrazolo[1,5-a]pyrimidine-3-carboxylic acid] as the compound, how does the “IC50 … of nsp9” value [1] read?
**A.** No activity up to 500 μM

**Q.** With `C#CCNC(=O)c1cnn2c(O)cc(CCl)nc12` [SW396062-1, 5-(Chloromethyl)-7-hydroxy-N-(prop-2-yn-1-yl)pyrazolo[1,5-a]pyrimidine-3-carboxamide] as the compound, how does the pIC50 [1] read?
**A.** < 3.30

**Q.** With `COC(=O)c1cnn2c(O)cc(CO)nc12` [SW396063-1, Methyl 7-hydroxy-5-(hydroxymethyl)pyrazolo[1,5-a]pyrimidine-3-carboxylate] as the compound, how does the pIC50 [1] read?
**A.** 3.43

**Q.** Which “IC50 … of nsp9” value [1] does the source give for `COC(=O)c1cnn2c(O)cc(C=O)nc12` [SW396064-1, Methyl 5-formyl-7-hydroxypyrazolo[1,5-a]pyrimidine-3-carboxylate] here?
**A.** No activity up to 500 μM

**Q.** With `COC(=O)c1cnn2c(O)cc(/C=C/C(=O)OC(C)(C)C)nc12` [SW396065-1, Methyl (E)-5-(3-(tert-butoxy)-3-oxoprop-1-en-1-yl)-7-hydroxypyrazolo[1,5-a]pyrimidine-3-carboxylate] as the compound, how does the “IC50 … of nsp9” value [1] read?
**A.** No activity up to 500 μM

**Q.** With `COC(=O)c1cnn2c(O)cc(/C=C/C(=O)O)nc12` [SW396066-1, (E)-3-(7-hydroxy-3-(methoxycarbonyl)pyrazolo[1,5-a]pyrimidin-5-yl)acrylic acid] as the compound, how does the “IC50 … of nsp9” value [1] read?
**A.** No activity up to 500 μM

**Q.** With `COC(=O)c1cnn2c(O)cc(/C=C/C(N)=O)nc12` [SW396067-1, Methyl (E)-5-(3-amino-3-oxoprop-1-en-1-yl)-7-hydroxypyrazolo[1,5-a]pyrimidine-3-carboxylate] as the compound, how does the “IC50 … of nsp9” value [1] read?
**A.** No activity up to 500 μM

**Q.** With `COC(=O)c1cn(C)n2c(=O)cc(CCl)nc12` [SW396262-1, Methyl 5-(chloromethyl)-1-methyl-7-oxo-1,7-dihydropyrazolo[1,5-a]pyrimidine-3-carboxylate] as the compound, how does the pIC50 [1] read?
**A.** < 3.30

**Q.** With `COC(=O)c1cnn2c(OC)cc(CCl)nc12` [SW396271-1, Methyl 5-(chloromethyl)-7-methoxypyrazolo[1,5-a]pyrimidine-3-carboxylate] as the compound, how does the pIC50 [1] read?
**A.** < 3.30

**Q.** For `COC(=O)c1cnn2c(O)cc(C(C)Cl)nc12` (stereo not shown) [SW396272-1, Methyl 5-(1-chloroethyl)-7-hydroxypyrazolo[1,5-a]pyrimidine-3-carboxylate], which “IC50 … of nsp9” value [1] is on record?
**A.** No activity up to 500 μM

**Q.** With `COC(=O)c1cnn2c(O)cc(C#N)nc12` [SW396744-1, Methyl 5-cyano-7-hydroxypyrazolo[1,5-a]pyrimidine-3-carboxylate] as the compound, how does the “IC50 … of nsp9” value [1] read?
**A.** No activity up to 500 μM

**Q.** With `COC(=O)c1cnn2c(O)cc(CCCl)nc12` [SW398309-1, Methyl 5-(2-chloroethyl)-7-hydroxypyrazolo[1,5-a]pyrimidine-3-carboxylate] as the compound, how does the “IC50 … of nsp9” value [1] read?
**A.** No activity up to 500 μM

**Q.** For `COC(=O)c1cnn2c(O)cc(CCO)nc12` [SW398310-1, Methyl 7-hydroxy-5-(2-hydroxyethyl)pyrazolo[1,5-a]pyrimidine-3-carboxylate], which “IC50 … of nsp9” value [1] is on record?
**A.** No activity up to 500 μM

**Q.** For `C#Cc1cc(O)n2ncc(C(=O)OC)c2n1` [SW461447-1, Methyl 5-ethynyl-7-hydroxypyrazolo[1,5-a]pyrimidine-3-carboxylate], which “IC50 … of nsp9” value [1] is on record?
**A.** No activity up to 500 μM

**Q.** With `COC(=O)c1cnn2c(O)cc(Cl)nc12` [SW461448-1] as the compound, how does the “IC50 … of nsp9” value [1] read?
**A.** No activity up to 500 μM

**Q.** Which results are given for `CC(C)(C)[C@H](NC(=O)C(F)(F)F)C(=O)N1C[C@H]2[C@@H]([C@H]1C(=O)N[C@H](C#N)C[C@@H]1CCNC1=O)C2(C)C` [nirmatrelvir]?
**A.** pEC50 [12]: 7.12; pKi [13]: 8.52

**Q.** With `CCC(CC)COC(=O)[C@H](C)N[P@](=O)(OC[C@H]1O[C@@](C#N)(c2ccc3c(N)ncnn23)[C@H](O)[C@@H]1O)Oc1ccccc1` [remdesivir, reference compound] as the compound, how does the pEC50 [10] read?
**A.** 6.19

**Q.** And the “inhibition of NiRAN activity” value [14]?
**A.** inhibit NiRAN activity
